The subject of series [1] is fungi, azole antifungal agent-resistant fungi. The settings on record: Patent Document 1; cited from earlier work.
Series [2] in a line: Octanol/water partition coefficient. The class given is physicochemical. The settings on record: in the range of pH 3 to 9. An excerpt: However, the octanol/water partition coefficient of compound A in the range of pH 3 to 9 is less than 0.05, which greatly differs from the partition coefficient (100 to 1000) of a compound generally having high membrane permeability. Compound A tends to be difficult to permeate through a membrane. Thus, it is difficult to provide a transdermal preparation comprising compound A or a salt thereof and having transdermal absorbability sufficient to exert a pharmacological effect. A transdermal preparation of compound A or a salt thereof is not known.

`N=C(N)c1ccc(OCCCC2CCN(CCCOc3ccc(C(=N)N)cc3)CC2)cc1` [compound A, 4-{3-[4-(3-{4-[Amino(imino)methyl]phenoxy}propyl)-1-piperidinyl]propoxy}benzamidine]: in series [1], the “antifungal activity (in words)” value is “strong antifungal activity”. Besides, the octanol/water partition coefficient entry in series [2] is listed as “less than 0.05”.

The values above are taken from patent publication US20130197036A1, “TRANSDERMAL ABSORPTION PREPARATION” (priority 2010, published 2013).
